Data on 8 compounds can be found in article PMC2635646, “Recognition Properties and Competitive Assays of a Dual Dopamine/Serotonin Selective Molecularly Imprinted Polymer” (International Journal of Molecular Sciences, 2008).

Assay [1] in a line: Time course of binding of ergot compounds to DS-MIP (HPLC-ECD assay). Conditions: 4:1 (v/v) methanol/water, 28 ± 1 °C. The protocol: The specificity of binding of a group of ergoline derivatives (ergocryptine, ergocornine, ergocristine, ergonovine, agroclavine, pergolide and terguride) to DS-MIP was assessed in 4:1 (v/v) methanol/water at room temperature (28 ± 1 °C). The binding of all the ergots to DS-MIP reached a constant value within 3 h, with ~50% of the DS-MIP-analyte complex being formed by 1 h (Figure 7). […] Based on the specific binding of the ergots to DS-MIP, the tested ergots are readily distinguished into three groups, based on their chemical structures. All of the ergot derivatives tested had typical four fused rings, indolyl amine, piperidinyl amine, and N-methyl and heteroatom-containing alkylpiperidinyl substituents (except pergolide with the N-propyl substituent). The differential binding of the ergot derivatives is probably a consequence of the interaction of the piperidinyl and indolyl amines with acidic and amide functions within the polymer. The orientation of functional entities within the D and S imprinted cavities was not optimal to complement the ergot derivatives, but they existed in sufficient numbers to produce the observed binding effect.
Figure 7. Time course for the binding of ergot compounds to DS-MIP at room temperature (28 ± 1 °C). Binding studies were conducted in 4:1 (v/v) methanol/water using 12.5 mg of polymer and 12.5 μg of each ergot in a final volume of 5 mL (4.1–10.5 μM). At equilibrium, analytes were quantitated in the filtrate by chromatographic assays as described in the Experimental Section. The values shown are mean ± SD of three replicate specimens.
The binding reactivities of ergocryptine, ergocristine, ergocornine, ergonovine, agroclavine, pergolide and terguride, in an incubation medium were evaluated using a chromatographic assay. Briefly, DS-MIP particulates (2.5 mg/mL) were incubated between 0 and 13 h in 10-mL vials at room temperature by agitation with each ergot compound (2.5 μg/mL, 4.1–10.5 μM) in methanol/water (5 mL, 4:1, v/v). At pre-determined time intervals, the filtrate was analysed for the amount of unbound substance by HPLC (see below). The percentage of ergot bound to the polymer was plotted as a function of the incubation time. Each experiment was repeated three times.
A reversed phase HPLC-ECD detection method was used for assay of the ergots. A mobile phase comprising of a buffer (pH 7.4) and methanol (34:66, % v/v) was used for elution. The buffer composition was as follows: 15 mM KH2PO4, 3.75 mM sodium heptanesulfonate and 7.5 mM KCl aqueous solution adjusted to pH 7.4 by phosphoric acid. The analytical column was a Luna 5μ C18, 25 cm × 0.46 cm (Phenomenex, CA, USA). A flow-rate of 1.0 mL/min was used. The electrochemical detector was set at 0.8 V potential. Correlation coefficients for calibration curves for the ergots in the range 2–25 μg/mL ([…]) were greater than 0.999. The sensitivity of detection was about 1.0 μg/mL (1.64–4.20 μM) and the reproducibility of the peak areas of analytes was more than 95%.

Assay [2] in a line: Competitive ligand binding assay on DS-MIP with D as fluorescent probe. The conditions noted are these: 25 mg polymer, D 6.60 μM, 5 mL 4:1 methanol/water, 28 ± 1 °C, mean ± SD, n = 3. As to the method: (§1) In this study, DS-MIP was employed as the sorbent phase for the determination of binding characteristics of the ergot family of alkaloids by competitive ligand binding assay experiment. The ability of the various ergot alkaloids (ergocryptine, ergocornine, ergocristine, ergonovine, agroclavine, pergolide and terguride) to displace bound D and S from the binding sites was measured. Figures 8(a,b) show competitive binding assays with the ergots in the presence of D and S as fluorescent probes. The typical sigmoid calibration curves were obtained for both the D ligand and the S ligand. […] Clearly, the ergot derivatives are able to act as competitors at the DS-MIP binding sites.
(§2) Figure 8. Plots of the ratio of the normalized signal (B/Bî) for MIP to that obtained for NIP against the logarithm of the ergot concentrations for the competitive ligand binding assay using DS-MIP as adsorbent phase and (a) D and (b) S as a fluorescent probe. The values shown are mean ± SD of three replicate specimens.
(§3) Seven ergoline compounds (ergocryptine, ergocristine, ergocornine, ergonovine, agroclavine, pergolide and terguride) were assessed for their ability to displace D or S bound to DS-MIP. DS-MIP or NIP particles (25 mg) were mixed with 6.25 μg of either D (or S) and varying amounts of ergot (final concentration: 0.02 - 500 μg/mL or 0.03 - 890.20 μM) in the suspension solvent (4:1, v/v methanol/water) up to a final volume of 5 ml. The mixture was incubated for 8 h at room temperature, maintaining constant stirring. The changes in fluorescence intensity of D probe in solution were monitored at 320 nm following excitation at 279 nm; for the S probe in solution, monitoring was at 335 nm after excitation at 300 nm. The experimental signals were normalized as: B/Bî, where B is the fluorescence intensity measured in the presence of increasing ergot concentrations and Bî is the signal in the absence of the ergot compound. The ratio of the normalized signal for MIP to that obtained for NIP was plotted as a function of the logarithm of the competitor concentration. Statistical analysis of concentration-response curves was performed by using the computer program GraphPad software, which calculates the lower and upper plateaus, the slope, and the IC50, concentration of an inhibitor producing 50% inhibition. An apparent inhibition constant (Ki) value was calculated using eq (3): (3) Ki=IC50/(1+[L]/Kd) where Ki = apparent inhibitor constant, [L] = free concentration of dopamine or serotonin, and Kd = apparent dissociation constant of a given MIP for D (or S). All experiments were performed in triplicate.

Assay [3] can be described thus: Competitive ligand binding assay on DS-MIP with S as fluorescent probe. Conditions: 25 mg polymer, S 5.90 μM, 5 mL 4:1 methanol/water, 28 ± 1 °C, mean ± SD, n = 3. As to the method: as §1, §2, §3
For assay [4], the target named is dopamine receptors derived from rat hypothalamus. Description: Displacement of D probe from natural receptor. Type of assay: binding, male-Wistar rat. Conditions: 10 mg protein, 0.25 μmole D in 1 mL (250 μM), 37 °C, mean ± SD, n = 4; read-out: Ki, D ligand, Rat hypothalamus. The protocol:
(§4) The equilibrium binding constants of the ergots on dopamine and serotonin receptors derived from rat hypothalamus was examined in a displacement assay using the added D and S as the molecular probes. The male-Wistar rat hypothalami receptors were isolated using a previously described procedure. The receptor pellets were washed with 50 mM Tris HCl until the endogenous D and S are no longer found in the rinse as examined by the fluorescence method described in the binding study. The pellets were then re-suspended in 50 mM Tris HCl with 0.5 mM Na2EDTA, 0.1% Na ascorbate before use. The protein content of the receptor pellets was verified by using the procedure of Bradford. Saturation experiments for the rat hypothalamus receptor were carried out by varying the concentration of D or S ligand in a 50 mM Tris HCl with 0.5 mM Na2EDTA and 0.1% Na ascorbate solution at 37 °C. The D and S binding at various concentrations was determined, using the fluorescence spectroscopic method for assay of the unbound probe as in the binding study.
(§5) The ability of 6–8 concentrations of test ergot (0.1–500 μg/mL or 0.16–890.20 μM) for typical profiles) to displace 0.25 μmole D and S probes was measured in drug displacement studies. […] To examine the equilibrium binding constant for the ergots, the unbound D and S probes was measured by fluorescence spectroscopy with the use of cation exchange resin to separate the protein bound and unbound probes. All experiments were performed four times using 50 mM Tris HCl with 0.5 mM Na2EDTA, 0.1% Na ascorbate as the medium, to which 10 mg of protein was added giving a final volume of 1 mL. The tubes were allowed to equilibrate for 30 min at 37 °C before filtering with a 0.45 μm cellulose acetate syringe filter (Whatman, NJ, USA) and were washed with two 5 mL ice-cold Tris-buffer. The filters were lyophilized and analysed for free probes. The supernatant aliquots were then passed through small columns of Amberlite CG-50 as previously reported. The 3 mL of formic acid-ethanol (1:3, v/v) eluates containing the analytes were evaporated to dryness in a polyethylene vial and the residues reconstituted with methanol (5 mL) before assay using fluorescence spectrometry. The binding of D and S probes in the presence of the ergots was calculated and plotted to the ergot concentrations for determination of IC50. An apparent Ki value was calculated in the same manner as described for the competitive ligand binding assay with DS-MIP.

In assay [5] the target is serotonin receptors derived from rat hypothalamus. Description: Displacement of S probe from natural receptor. Type of assay: binding, male-Wistar rat. The conditions noted are these: 10 mg protein, 0.25 μmole S in 1 mL (250 μM), 37 °C, mean ± SD, n = 4; read-out: Ki, S ligand, Rat hypothalamus. The protocol:
as §4, §5

Assay [6] is described as follows: 1H-NMR titration of template/functional monomer complexation. Type of assay: binding. Conditions: 1:1 complex of D with single monomer, d6-DMSO, 25 °C. An excerpt:
A mixture of methanol and water (4:1, v/v) was chosen as the porogen solvent for the D and S templates, as the hydrochloride salts were soluble only in polar solvents. The strength and positioning of the monomer-template interactions are of importance in developing materials with good molecular recognition properties. For the current work, the functional monomers and cross-linker had been constructed into the MIP structure with a view toward obtaining an efficient recognition system in a polar medium. MAA and ACM were generally used as functional monomers for the imprinting process. Both D and S have a phenolic hydroxyl and the nitrogen atom(s) of the amine group(s) acts as a hydrogen donor-acceptor moiety for binding functional monomers with a corresponding hydrogen bonding pattern. […] However, the huge excess of water and methanol that would be form H-bonds in competition with template and monomer, would reduce binding energy between template and monomer. […] The MBAA cross-linker also forms hydrogen bonds with the carboxylic acid and amino groups of the templates. Figure 2 illustrates the dual dopamine/serotonin molecular recognition site generation in this work.
The change in chemical shifts of proton resonances as a function of D (or S) concentrations was studied in DMSO-d6.

For assay [7], the system named is dopamine receptors derived from rat hypothalamus. Conditions: D ligand, 50 mM Tris HCl, 37 °C, mean ± SD, n = 3. The protocol:
as §4

Where a name gives a salt, the structure may show the parent alone. Read-outs that look alike come from different tables or passages of the source.

By Ki is commonly meant the equilibrium dissociation constant of an inhibitor or competing ligand from its target.

On to `CC1=C[C@@H]2c3cccc4[nH]cc(c34)C[C@H]2N(C)C1` [Agroclavine, agroclavine], for which, in assay [1] (DS-MIP 2.5 mg/mL, ergot 2.5 μg/mL), the “binding with DS-MIP” value is recorded as 70%. The Ki was found to be 0.4 ± 0.01 µM in assay [2], 5.31 ± 0.22 µM in assay [3], 1.5 ± 0.2 nM in assay [4] and 0.0012 ± 0.0001 µM in assay [5].
`NCCc1ccc(O)c(O)c1` [D, Dopamine hydrochloride]: the results for the Kd in assay [6] (read-out: apparent dissociation constant (app. Kdiss) of complex with ACM), in assay [6] (read-out: apparent dissociation constant (app. Kdiss) of complex with MAA) and in assay [7] (read-out: dissociation constant (Kd)) were 1980 ± 100 µM, 2120 ± 200 µM and 0.00053 ± 0.00015 µM, respectively. The “receptor binding (Bmax)” value in assay [7] came out at 1.50 ± 0.09 pmol/mg protein.
With `CC(C)[C@H]1C(=O)N2CCC[C@H]2[C@]2(O)O[C@](NC(=O)[C@@H]3C=C4c5cccc6[nH]cc(c56)C[C@H]4N(C)C3)(C(C)C)C(=O)N12` [Ergocornine, ergocornine], the “binding to DS-MIP, fold lower than agroclavine” value in assay [1] was “about 2 fold”. Moreover, the Ki in assay [2] worked out at 217 ± 2.59 µM; in assay [3], 27.2 ± 0.78 µM; in assay [4], 10.4 ± 0.2 nM; in assay [5], 0.02 ± 0.0001 µM.
As for `CC(C)[C@@]1(NC(=O)[C@@H]2C=C3c4cccc5[nH]cc(c45)C[C@H]3N(C)C2)O[C@@]2(O)[C@@H]3CCCN3C(=O)[C@H](Cc3ccccc3)N2C1=O` [Ergocristine, ergocristine], the “binding to DS-MIP, fold lower than agroclavine” value in assay [1] is listed as “about 2 fold”. In addition, the Ki in assay [2] stood at 141 ± 1.47 µM; in assay [3] it was 19.3 ± 0.6 µM; in assay [4], 7.6 ± 0.1 nM; in assay [5] it was 0.0068 ± 0.0002 µM.
For `CC(C)C[C@H]1C(=O)N2CCC[C@H]2[C@]2(O)O[C@](NC(=O)[C@@H]3C=C4c5cccc6[nH]cc(c56)C[C@H]4N(C)C3)(C(C)C)C(=O)N12` [Ergocryptine, ergocryptine], the “binding to DS-MIP, fold lower than agroclavine” value in assay [1] is recorded as “about 2 fold”. For the same compound, the Ki came out at 124.9 ± 1.22 µM in assay [2], 24.9 ± 0.69 µM in assay [3], 2.8 ± 0.2 nM in assay [4] and 0.01 ± 0.0004 µM in assay [5].
For `C[C@@H](CO)NC(=O)[C@@H]1C=C2c3cccc4[nH]cc(c34)C[C@H]2N(C)C1` [Ergonovine, ergonovine maleate], the “binding to DS-MIP, fold lower than agroclavine” value in assay [1] is listed as ~ 1.25 fold. Besides, the Ki is 69.57 ± 0.51 µM in assay [2], 14.7 ± 0.29 µM in assay [3], 2.5 ± 0.1 nM in assay [4] and 0.0012 ± 0.0001 µM in assay [5].
As to `CCCN1C[C@H](CSC)C[C@@H]2c3cccc4[nH]cc(c34)C[C@H]21` [Pergolide, pergolide mesylate], the “binding to DS-MIP, fold lower than agroclavine” value in assay [1] is given as ~ 1.25 fold. Moreover, the Ki was 0.2 ± 0.01 µM in assay [2], 12.78 ± 0.09 µM in assay [3], 0.7 ± 0.1 nM in assay [4] and 0.006 ± 0.0002 µM in assay [5].
For the compound `CCN(CC)C(=O)N[C@H]1C[C@@H]2c3cccc4[nH]cc(c34)C[C@H]2N(C)C1` [Terguride, terguride], the “binding to DS-MIP, fold lower than agroclavine” value in assay [1] is recorded as ~ 1.25 fold. Further, the Ki in assay [2] is 0.14 ± 0.01 µM; in assay [3], 7.79 ± 0.17 µM; in assay [4], 0.03 ± 0.005 nM; in assay [5], 0.0013 ± 0.0001 µM.
